Literature values, collected in patent US20040131702A1, “Use of selenite or preparation containing selenite for treating wounds” (priority 2001, published 2004).
“And” between values parts separate entries of the source, which are not always exact repeats. Equal entries are not always repeated.

Key:
[1] = acid environment
human body = conditions: in vivo
animals = conditions: in vivo

SMILES	Standard redox potential E0 [1]	Selenium content of the daily food above which the human body will fall ill (human body)	Selenium content of food above which animals exhibit symptoms of poisoning (animals)
O=[Se](O)O [selenite]	−0.740 Volt and −0.740 (acid environment) Volt		
[Se] [selenium]		more than 1 μg of selenium/g	5 to 10 μg of selenium/g
